Assay results as given in ChEMBL document CHEMBL1144308, “Novel CDK inhibition profiles of structurally varied 1-aza-9-oxafluorenes” (Bioorg Med Chem Lett, 2005).

Columns and labels:
Format in all cases: protein-complex assay
[1] = biological target: T1, Cyclin-dependent kinase 2/cyclin E1 (Homo sapiens, UniProt P24941); assay: Inhibitory concentration tested against Cyclin dependant kinase 2-cyclinE; ND: not determined
[2] = biological target: Cyclin-dependent kinase 1/cyclin B1 (Homo sapiens, UniProt P06493); assay: Inhibitory concentration tested against Cyclin dependant kinase 1-cyclinB
[3] = biological target: T2, Cyclin-dependent kinase 4/cyclin D1 (Homo sapiens, UniProt P11802); assay: Inhibitory concentration tested against Cyclin dependant kinase 4-cyclinD1; ND: not determined
[4] = biological target: T1, Cyclin-dependent kinase 2/cyclin E1; assay: Inhibitory concentration tested against Cyclin dependant kinase 2-cyclinE
[5] = biological target: Cyclin-dependent kinase 5/CDK5 activator 1 (Homo sapiens, UniProt Q00535+Q15078); assay: Inhibitory concentration tested against Cyclin-dependent kinase 5; NA: not active
[6] = biological target: T2, Cyclin-dependent kinase 4/cyclin D1; assay: Inhibitory concentration tested against Cyclin dependant kinase 4-cyclinD1
[7] = biological target: Cyclin-dependent kinase 5/CDK5 activator 1 (Homo sapiens, UniProt Q00535); assay: Inhibitory concentration tested against Cyclin-dependent kinase 5
Sequence of Cyclin-dependent kinase 5/CDK5 activator 1 (Homo sapiens, UniProt Q00535) (Q00535 whole entry): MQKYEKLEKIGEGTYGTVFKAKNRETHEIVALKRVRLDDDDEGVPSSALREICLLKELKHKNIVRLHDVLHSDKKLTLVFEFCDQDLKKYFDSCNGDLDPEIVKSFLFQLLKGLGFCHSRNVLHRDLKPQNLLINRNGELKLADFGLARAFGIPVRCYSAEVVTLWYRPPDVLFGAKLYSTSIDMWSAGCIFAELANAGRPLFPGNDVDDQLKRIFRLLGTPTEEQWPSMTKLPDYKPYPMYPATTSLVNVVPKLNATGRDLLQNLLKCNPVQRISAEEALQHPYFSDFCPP
Sequence of Cyclin-dependent kinase 5/CDK5 activator 1 (Homo sapiens, UniProt Q00535) (Q15078 whole entry, further chain): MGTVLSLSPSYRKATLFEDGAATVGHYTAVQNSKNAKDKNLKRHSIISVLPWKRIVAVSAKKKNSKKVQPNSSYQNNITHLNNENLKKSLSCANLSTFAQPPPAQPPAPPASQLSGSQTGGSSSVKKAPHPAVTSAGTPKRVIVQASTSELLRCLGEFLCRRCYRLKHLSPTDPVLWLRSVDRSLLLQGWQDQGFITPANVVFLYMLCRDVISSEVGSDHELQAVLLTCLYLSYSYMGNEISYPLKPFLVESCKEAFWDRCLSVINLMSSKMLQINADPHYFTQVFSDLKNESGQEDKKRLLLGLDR

Sequence of Cyclin-dependent kinase 5/CDK5 activator 1 (Homo sapiens, UniProt Q00535+Q15078) (Q00535 whole entry): as the sequence (Q00535 whole entry) above
Sequence of Cyclin-dependent kinase 5/CDK5 activator 1 (Homo sapiens, UniProt Q00535+Q15078) (Q15078 whole entry): as the sequence (Q15078 whole entry, further chain) above
T2 sequence (P11802 whole entry): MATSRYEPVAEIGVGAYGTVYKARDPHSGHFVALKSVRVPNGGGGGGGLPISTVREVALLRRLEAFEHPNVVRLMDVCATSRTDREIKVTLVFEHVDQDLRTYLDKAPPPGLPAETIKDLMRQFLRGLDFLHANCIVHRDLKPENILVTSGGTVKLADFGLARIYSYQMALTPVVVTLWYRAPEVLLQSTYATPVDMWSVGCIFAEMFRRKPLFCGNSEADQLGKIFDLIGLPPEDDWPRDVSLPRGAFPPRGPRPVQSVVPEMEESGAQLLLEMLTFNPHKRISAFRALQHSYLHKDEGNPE
T2 sequence (P24385 whole entry, further chain): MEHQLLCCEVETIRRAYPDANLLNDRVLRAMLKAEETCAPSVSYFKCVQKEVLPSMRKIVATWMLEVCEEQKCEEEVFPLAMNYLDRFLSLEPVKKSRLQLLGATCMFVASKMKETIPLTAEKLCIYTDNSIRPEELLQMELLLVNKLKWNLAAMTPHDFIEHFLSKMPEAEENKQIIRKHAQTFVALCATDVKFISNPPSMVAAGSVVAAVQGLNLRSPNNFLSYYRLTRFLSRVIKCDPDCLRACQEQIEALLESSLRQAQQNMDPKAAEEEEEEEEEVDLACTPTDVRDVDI
Sequence of Cyclin-dependent kinase 1/cyclin B1 (P06493 whole entry): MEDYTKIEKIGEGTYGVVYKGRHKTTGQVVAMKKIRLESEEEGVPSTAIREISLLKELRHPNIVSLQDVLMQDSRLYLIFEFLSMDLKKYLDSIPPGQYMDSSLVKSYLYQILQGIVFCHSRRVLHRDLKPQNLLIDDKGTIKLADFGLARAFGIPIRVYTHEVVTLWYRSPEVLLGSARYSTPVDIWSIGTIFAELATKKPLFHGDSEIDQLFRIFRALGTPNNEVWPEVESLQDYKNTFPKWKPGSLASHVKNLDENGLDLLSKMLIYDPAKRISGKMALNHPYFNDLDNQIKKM
Sequence of Cyclin-dependent kinase 1/cyclin B1 (P14635 whole entry, further chain): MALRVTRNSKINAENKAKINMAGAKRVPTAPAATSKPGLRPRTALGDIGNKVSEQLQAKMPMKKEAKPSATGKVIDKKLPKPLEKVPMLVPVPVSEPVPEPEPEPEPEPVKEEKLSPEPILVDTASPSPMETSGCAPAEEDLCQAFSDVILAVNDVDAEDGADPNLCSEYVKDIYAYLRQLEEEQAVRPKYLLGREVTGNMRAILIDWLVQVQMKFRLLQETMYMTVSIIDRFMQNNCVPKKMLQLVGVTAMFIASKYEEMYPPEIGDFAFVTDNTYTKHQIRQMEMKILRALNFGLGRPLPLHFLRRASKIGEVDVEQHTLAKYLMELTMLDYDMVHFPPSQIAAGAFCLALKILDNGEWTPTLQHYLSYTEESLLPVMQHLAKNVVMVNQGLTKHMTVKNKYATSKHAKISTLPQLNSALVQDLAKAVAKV

CC(=O)c1cnc2oc3ccc(O)cc3c2c1-c1ccccc1
IC50 [1]: > 100 µM
IC50 [2]: 4.2 µM
IC50 [3]: > 100 µM

Cc1cnc2oc3ccc(O)cc3c2c1-c1ccccc1
IC50 [2]: > 100 µM
IC50 [4]: > 100 µM
IC50 [5]: Not Active
IC50 [6]: > 100 µM

COc1cnc2oc3ccc(O)cc3c2c1-c1ccccc1
IC50 [2]: 64.3 µM
IC50 [4]: 80 µM
IC50 [6]: > 100 µM
IC50 [7]: 6.3 µM

CCOc1cnc2oc3ccc(O)cc3c2c1-c1ccccc1
IC50 [2]: > 100 µM
IC50 [4]: > 100 µM
IC50 [6]: > 100 µM
IC50 [7]: 5.9 µM

Oc1ccc2oc3ncc(Cl)c(-c4ccccc4)c3c2c1
IC50 [2]: > 100 µM
IC50 [4]: > 100 µM
IC50 [5]: Not Active
IC50 [6]: > 100 µM

Oc1ccc2oc3ncc(Br)c(-c4ccccc4)c3c2c1
IC50 [2]: 70.7 µM
IC50 [4]: 3.2 µM
IC50 [5]: Not Active
IC50 [6]: 28.7 µM
